Data as given in ChEMBL document CHEMBL1127200, “Novel dimeric penicillin derived inhibitors of HIV-1 proteinase: interaction with the catalytic aspartates” (Bioorg Med Chem Lett, 1993).

Each compound was assayed against Human immunodeficiency virus type 1 protease (Human immunodeficiency virus 1, UniProt Q72874) (assay: The compound was tested in vitro for its inhibitory activity against HIV-1 Proteinase activity).
`CC1(C)S[C@H]([C@H](NC(=O)Cc2ccccc2)C(=O)NCc2ccccc2)N[C@H]1C(=O)NC[C@H](O)[C@@H](O)CNC(=O)[C@@H]1N[C@@H]([C@H](NC(=O)Cc2ccccc2)C(=O)NCc2ccccc2)SC1(C)C` gave an IC50 of 36 nM. `CCCNC(=O)[C@@H](NC(=O)Cc1ccccc1)[C@@H]1N[C@@H](C(=O)NCC(CO)NC(=O)[C@@H]2N[C@@H]([C@H](NC(=O)Cc3ccccc3)C(=O)NCC)SC2(C)C)C(C)(C)S1` (stereo partly specified) gave an IC50 of 25 nM. `CC1(C)S[C@H]([C@H](NC(=O)Cc2ccccc2)C(=O)NCc2ccccc2)N[C@H]1C(=O)NCCCCNC(=O)[C@@H]1N[C@@H]([C@H](NC(=O)Cc2ccccc2)C(=O)NCc2ccccc2)SC1(C)C` showed an IC50 of 530 nM. Compound `CC1(C)S[C@H]([C@H](NC(=O)Cc2ccccc2)C(=O)NCc2ccccc2)N[C@H]1C(=O)NC[C@@H](O)[C@H](O)CNC(=O)[C@@H]1N[C@@H]([C@H](NC(=O)Cc2ccccc2)C(=O)NCc2ccccc2)SC1(C)C` has an IC50 of 15 nM. `CC1(C)S[C@H]([C@H](NC(=O)Cc2ccccc2)C(=O)NCc2ccccc2)N[C@H]1C(=O)NC[C@@H](O)[C@@H](O)CNC(=O)[C@@H]1N[C@@H]([C@H](NC(=O)Cc2ccccc2)C(=O)NCc2ccccc2)SC1(C)C` was tested, and the IC50 was 14 nM. Compound `CCCNC(=O)[C@@H](NC(=O)Cc1ccccc1)[C@@H]1N[C@@H](C(=O)N(C)CCN(C)C(=O)[C@@H]2N[C@@H]([C@H](NC(=O)Cc3ccccc3)C(=O)NCC)SC2(C)C)C(C)(C)S1` has an IC50 of 11 nM.
